The values below come from BindingDB's records for doi:10.1021/acs.jmedchem.7b00359 (AstraZeneca, 2017).

For assay [1], the target named is T1, Zinc finger and BTB domain-containing protein 16 (Homo sapiens, UniProt Q05516).
T1 sequence (Q05516 whole entry): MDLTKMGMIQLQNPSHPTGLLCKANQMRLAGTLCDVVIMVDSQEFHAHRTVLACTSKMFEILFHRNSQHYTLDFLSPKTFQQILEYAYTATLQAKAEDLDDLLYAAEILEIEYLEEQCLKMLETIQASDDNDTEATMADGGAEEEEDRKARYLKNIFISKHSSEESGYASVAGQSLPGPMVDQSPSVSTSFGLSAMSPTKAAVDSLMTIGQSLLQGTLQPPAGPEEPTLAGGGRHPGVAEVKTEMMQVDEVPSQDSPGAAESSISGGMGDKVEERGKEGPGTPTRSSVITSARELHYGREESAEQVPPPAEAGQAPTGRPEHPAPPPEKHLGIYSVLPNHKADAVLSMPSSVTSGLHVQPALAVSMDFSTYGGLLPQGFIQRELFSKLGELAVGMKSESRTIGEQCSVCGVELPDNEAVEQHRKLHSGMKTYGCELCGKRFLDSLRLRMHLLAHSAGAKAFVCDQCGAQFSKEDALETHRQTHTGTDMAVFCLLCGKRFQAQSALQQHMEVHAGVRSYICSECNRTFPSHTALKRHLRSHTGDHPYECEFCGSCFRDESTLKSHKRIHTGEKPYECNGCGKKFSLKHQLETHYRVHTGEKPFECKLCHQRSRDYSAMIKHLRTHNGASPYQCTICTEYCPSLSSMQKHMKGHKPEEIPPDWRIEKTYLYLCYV
Nature of the assay: (§1) Inhibition of GAL4 DNA binding domain fused PLZF BTB domain (unknown origin) expressed in HEK 293T/17 cells after 24 hrs by Bright-Glo luciferase cell reporter assay.

Assay [2] addresses T1, Zinc finger and BTB domain-containing protein 16. In words: ChEBML_1665992.
Excerpt: as §1

Molecules are shown by their SMILES.

Usually IC50 stands for the point on the concentration scale where inhibition reaches its midpoint. Compound `O=C1CCc2cc3cc(c2N1Cc1ccccc1)OC/C=C/CO[C@H]1C[C@@H](CO)N(C1)c1cc(n2ncc(Cl)c2n1)N3` yielded an IC50 in assay [1] above 30 µM.
Compound `N#Cc1cnn2c3cc(nc12)N1C[C@H](C[C@H]1CO)OC/C=C/COc1cc(cc2c1NC(=O)CC2)N3` displayed an IC50 in assay [2] above 30 µM.
Consider `CN1C(=O)CCc2cc3cc(c21)OC/C=C/CO[C@H]1C[C@@H](CO)N(C1)c1cc(n2ncc(Cl)c2n1)N3`, for which the IC50 in assay [1] is above 30 µM.
Compound `O=C1CCc2cc3cc(c2N1CC1CC1)OC/C=C/CO[C@H]1C[C@@H](CO)N(C1)c1cc(n2ncc(Cl)c2n1)N3` returned an IC50 in assay [1] above 30 µM.
Still for that read-out and setting: in the case of `O=C(O)C[C@@H]1C[C@H]2CN1c1cc(n3ncc(Cl)c3n1)Nc1cc3c(c(c1)OC/C=C/CO2)N(CC1CC(F)(F)C1)C(=O)CC3` it was above 30 µM; in that of `O=C1CCc2cc3cc(c2N1CCCN1CCOCC1)OC/C=C/CO[C@H]1C[C@@H](CO)N(C1)c1cc(n2ncc(Cl)c2n1)N3`, above 30 µM.
Same read-out and setting: under `COc1cccc(CN2C(=O)CCc3cc4cc(c32)OC/C=C/CO[C@H]2C[C@@H](CO)N(C2)c2cc(n3ncc(C#N)c3n2)N4)c1` stands above 30 µM; under `Cc1ccccc1CN1C(=O)CCc2cc3cc(c21)OC/C=C/CO[C@H]1C[C@@H](CO)N(C1)c1cc(n2ncc(Cl)c2n1)N3`, above 30 µM; under `Cc1ccc(CN2C(=O)CCc3cc4cc(c32)OC/C=C/CO[C@H]2C[C@@H](CO)N(C2)c2cc(n3ncc(Cl)c3n2)N4)cc1`, above 30 µM.
Still for that read-out and setting: under `O=C1CCc2cc3cc(c2N1Cc1ccncc1)OC/C=C/CO[C@H]1C[C@@H](CO)N(C1)c1cc(n2ncc(Cl)c2n1)N3` stands above 30 µM.
As for `O=C1CCc2cc3cc(c2N1CC1CC(F)(F)C1)OC/C=C/CO[C@H]1C[C@@H](CO)N(C1)c1cc(n2ncc(Cl)c2n1)N3`, the IC50 in assay [1] was above 30 µM.
On the same count and under the same terms, in the case of `COc1cccc(CN2C(=O)CCc3cc4cc(c32)OC/C=C/CO[C@H]2C[C@@H](CO)N(C2)c2cc(n3ncc(Cl)c3n2)N4)c1` it was above 30 µM.
On the same count and under the same terms, under `O=C1CCc2cc3cc(c2N1)OCCCCO[C@H]1C[C@@H](CO)N(C1)c1cc(n2nccc2n1)N3` stands above 30 µM; under `N#Cc1cnn2c3cc(nc12)N1C[C@H](C[C@H]1CO)OCCCCOc1cc(cc2c1NC(=O)CC2)N3`, above 30 µM; under `N#Cc1cnn2c3cc(nc12)N1CC[C@@H](C1)OCCCCOc1cc(cc2c1NC(=O)CC2)N3`, above 30 µM.
Still for that read-out and setting: under `O=C1CCc2cc3cc(c2N1)OCCCCO[C@H]1C[C@@H](CO)N(C1)c1cc(n2ncc(Cl)c2n1)N3` stands above 30 µM; under `O=C1CCc2cc3cc(c2N1)OC/C=C/CO[C@H]1C[C@@H](CO)N(C1)c1cc(n2ncc(Cl)c2n1)N3`, above 30 µM.
